Laboratory results as given in patent US10064865B2, “Composition comprising phosphodiesterase type 5 inhibitor for inhibiting apoptosis of nerve cells” (ARIBIO INC., priority 2012, dated 2018).
Marks after values point to notes of the source that are not given here.

Test system: neuron apoptosis-operated rats
Assay: Example 1 body swing test
Format: in vivo, Sprague-Dawley (SD) rats
Method: Sensorimotor function was evaluated by use of limb placing de Ryck M et al., Stroke. 20:1383-90(1989)) and body swing (Borlongan and Sanberg, J Neurosci. 15:5372-8(1995)) tests. These tests were performed one day before neuron apoptosis to obtain a baseline and then at 1, 3, 7, 14, 21 and 28 days after neuron apoptosis. Behavioral tests were done before drug administration on days when both were scheduled. The investigator performing the surgery and behavioral assessments was blinded to treatment assignment.
Body swing tests: Animals were held approximately 2 cm from the base of its tail and elevated to an inch above a surface of a table. A swing was recorded whenever the rat moved its head out of the vertical axis to either side by more than 10° from vertical and then returned to the vertical position. Thirty total swings were counted per animal. After right-hemisphere neuron apoptosis, animals tend to swing to the contralateral (left) side. Thus, the numbers and percentages of body swings to the ipsilateral (right) side were recorded as a measure of recovery, with an intact animal scoring.
All data were expressed as mean±standard deviation (S.D.) of ten rats. Multiple comparison tests for different dose groups were conducted. Variance homogeneity was examined using the Levene test (Levene A, Clin Otalary, 1981; 6:145-51). […] Statistical analyses were conducted using SPSS (Release 14K, SPSS Inc., USA; Ludbrook, Clin Exp Pharmacol Physiol, 1997; 24:294-6). In addition, the percent changes between neuron apoptosis control and mirodenafil treated rats were calculated to help the understanding of the efficacy of test material as follow equation 3. Percentage changes as compared with neuron apoptosis control (%)=[((Data of mirodenafil treated groups−Data of neuron apoptosis control)/Data of neuron apoptosis control)×100] [EQUATION 3]

[1] = 0.5 mg/kg group, day 1 after operation (before drug administration)
[2] = 0.5 mg/kg group, day −1 (baseline)
[3] = 0.5 mg/kg s.c. once a day, day 3 after operation
[4] = 0.5 mg/kg s.c. once a day, day 7 after operation
[5] = 0.5 mg/kg s.c. once a day, day 14 after operation
[6] = 0.5 mg/kg s.c. once a day, day 21 after operation
[7] = 0.5 mg/kg s.c. once a day, day 28 after operation
[8] = 1 mg/kg group, day 1 after operation (before drug administration)
[9] = 1 mg/kg group, day −1 (baseline)
[10] = 1 mg/kg s.c. once a day, day 3 after operation
[11] = 1 mg/kg s.c. once a day, day 7 after operation
[12] = 1 mg/kg s.c. once a day, day 14 after operation
[13] = 1 mg/kg s.c. once a day, day 21 after operation
[14] = 1 mg/kg s.c. once a day, day 28 after operation
[15] = 2 mg/kg group, day 1 after operation (before drug administration)
[16] = 2 mg/kg group, day −1 (baseline)
[17] = 2 mg/kg s.c. once a day, day 3 after operation
[18] = 2 mg/kg s.c. once a day, day 7 after operation
[19] = 2 mg/kg s.c. once a day, day 14 after operation
[20] = 2 mg/kg s.c. once a day, day 21 after operation
[21] = 2 mg/kg s.c. once a day, day 28 after operation

CCCOc1ccc(S(=O)(=O)N2CCN(CCO)CC2)cc1-c1nc2c(CCC)cn(CC)c2c(=O)[nH]1 [Mirodenafil, mirodenafil]
The numbers of body swings to the ipsilateral right sides/total 30 body swings [1]: 1.40 ± 1.17^a
The percentages of body swings to the ipsilateral right sides/total 30 body swings [1]: 4.67 ± 3.91^a %
The numbers of body swings to the ipsilateral right sides/total 30 body swings [2]: 15.10 ± 0.99
The percentages of body swings to the ipsilateral right sides/total 30 body swings [2]: 50.33 ± 3.31%
The numbers of body swings to the ipsilateral right sides/total 30 body swings [3]: 2.10 ± 1.37^a
The percentages of body swings to the ipsilateral right sides/total 30 body swings [3]: 7.00 ± 4.57^a %
The numbers of body swings to the ipsilateral right sides/total 30 body swings [4]: 2.40 ± 1.26^a
The percentages of body swings to the ipsilateral right sides/total 30 body swings [4]: 8.00 ± 4.22^a %
The numbers of body swings to the ipsilateral right sides/total 30 body swings [5]: 4.20 ± 1.62^ac
The percentages of body swings to the ipsilateral right sides/total 30 body swings [5]: 14.00 ± 5.40^ac %
The numbers of body swings to the ipsilateral right sides/total 30 body swings [6]: 5.40 ± 1.26^ab
The percentages of body swings to the ipsilateral right sides/total 30 body swings [6]: 18.00 ± 4.22^ab %
The numbers of body swings to the ipsilateral right sides/total 30 body swings [7]: 6.20 ± 1.99^ac
The percentages of body swings to the ipsilateral right sides/total 30 body swings [7]: 20.67 ± 6.63^ac %
numbers and percentages of body swings to ipsilateral right sides, change as compared with neuron apoptosis control (0.5 mg/kg, 3 days after surgery): 16.67%
numbers and percentages of body swings to ipsilateral right sides, change as compared with neuron apoptosis control (0.5 mg/kg, 7 days after surgery): 9.09%
numbers and percentages of body swings to ipsilateral right sides, change as compared with neuron apoptosis control (0.5 mg/kg, 14 days after surgery): 44.83%
numbers and percentages of body swings to ipsilateral right sides, change as compared with neuron apoptosis control (0.5 mg/kg, 21 days after surgery): 50.00%
numbers and percentages of body swings to ipsilateral right sides, change as compared with neuron apoptosis control (0.5 mg/kg, 28 days after surgery): 44.19%
The numbers of body swings to the ipsilateral right sides/total 30 body swings [8]: 1.30 ± 0.95^a
The percentages of body swings to the ipsilateral right sides/total 30 body swings [8]: 4.33 ± 3.16^a %
The numbers of body swings to the ipsilateral right sides/total 30 body swings [9]: 15.10 ± 1.29
The percentages of body swings to the ipsilateral right sides/total 30 body swings [9]: 50.33 ± 4.29%
The numbers of body swings to the ipsilateral right sides/total 30 body swings [10]: 2.70 ± 0.82^a
The percentages of body swings to the ipsilateral right sides/total 30 body swings [10]: 9.00 ± 2.74^a %
The numbers of body swings to the ipsilateral right sides/total 30 body swings [11]: 3.10 ± 0.88^a
The percentages of body swings to the ipsilateral right sides/total 30 body swings [11]: 10.33 ± 2.92^a %
The numbers of body swings to the ipsilateral right sides/total 30 body swings [12]: 5.80 ± 1.23^ab
The percentages of body swings to the ipsilateral right sides/total 30 body swings [12]: 19.33 ± 4.10^ab %
The numbers of body swings to the ipsilateral right sides/total 30 body swings [13]: 7.30 ± 1.89^ab
The percentages of body swings to the ipsilateral right sides/total 30 body swings [13]: 24.33 ± 6.30^ab %
The numbers of body swings to the ipsilateral right sides/total 30 body swings [14]: 11.50 ± 1.58^ab
The percentages of body swings to the ipsilateral right sides/total 30 body swings [14]: 38.33 ± 5.27^ab %
numbers and percentages of body swings to ipsilateral right sides, change as compared with neuron apoptosis control (1 mg/kg, 3 days after surgery): 50.00%
numbers and percentages of body swings to ipsilateral right sides, change as compared with neuron apoptosis control (1 mg/kg, 7 days after surgery): 40.91%
numbers and percentages of body swings to ipsilateral right sides, change as compared with neuron apoptosis control (1 mg/kg, 14 days after surgery): 100.00%
numbers and percentages of body swings to ipsilateral right sides, change as compared with neuron apoptosis control (1 mg/kg, 21 days after surgery): 102.78%
numbers and percentages of body swings to ipsilateral right sides, change as compared with neuron apoptosis control (1 mg/kg, 28 days after surgery): 167.44%
The numbers of body swings to the ipsilateral right sides/total 30 body swings [15]: 1.20 ± 0.63^a
The percentages of body swings to the ipsilateral right sides/total 30 body swings [15]: 4.00 ± 2.11^a %
The numbers of body swings to the ipsilateral right sides/total 30 body swings [16]: 15.00 ± 1.15
The percentages of body swings to the ipsilateral right sides/total 30 body swings [16]: 50.00 ± 3.85%
The numbers of body swings to the ipsilateral right sides/total 30 body swings [17]: 3.00 ± 0.82^ac
The percentages of body swings to the ipsilateral right sides/total 30 body swings [17]: 10.00 ± 2.72^ac %
The numbers of body swings to the ipsilateral right sides/total 30 body swings [18]: 3.20 ± 0.63^ac
The percentages of body swings to the ipsilateral right sides/total 30 body swings [18]: 10.67 ± 2.11^ac %
The numbers of body swings to the ipsilateral right sides/total 30 body swings [19]: 6.00 ± 1.56^ab
The percentages of body swings to the ipsilateral right sides/total 30 body swings [19]: 20.00 ± 5.21^ab %
The numbers of body swings to the ipsilateral right sides/total 30 body swings [20]: 8.80 ± 1.23^ab
The percentages of body swings to the ipsilateral right sides/total 30 body swings [20]: 29.33 ± 4.10^ab %
The numbers of body swings to the ipsilateral right sides/total 30 body swings [21]: 11.10 ± 1.91^ab
The percentages of body swings to the ipsilateral right sides/total 30 body swings [21]: 37.00 ± 6.37^ab %
numbers and percentages of body swings to ipsilateral right sides, change as compared with neuron apoptosis control (2 mg/kg, 3 days after surgery): 66.67%
numbers and percentages of body swings to ipsilateral right sides, change as compared with neuron apoptosis control (2 mg/kg, 7 days after surgery): 45.45%
numbers and percentages of body swings to ipsilateral right sides, change as compared with neuron apoptosis control (2 mg/kg, 14 days after surgery): 106.90%
numbers and percentages of body swings to ipsilateral right sides, change as compared with neuron apoptosis control (2 mg/kg, 21 days after surgery): 144.44%
numbers and percentages of body swings to ipsilateral right sides, change as compared with neuron apoptosis control (2 mg/kg, 28 days after surgery): 158.14%
